# Assay results as given in patent US20090306020A1, “Combination therapy comprising diaryl ureas for treating diseases” (Bayer Healthcare AG, priority 2005, published 2009).
# Entries after “also recorded” stand apart in the source; their conditions may differ.
# How the values were obtained:
# [1] = test system: phospho-ERK (phospho-p44/42 MAP kinase, Thr202/Tyr204); assay: Immunohistochemistry for phosphorylated ERK in melanoma reconstructs; assay type: cell-based, human; conditions: Skmel28 reconstructs; 6 μM BAY 43-9006
# Method: (§1) The in vitro reconstruction of metastatic melanoma is based on the organotypic human skin culture technique (14). A cell-free buffered collagen solution was prepared consisting of rat tail collagen type I (BD Biosciences, Bedford, Mass., USA) at a final concentration of 1.35 mg/ml in Dulbecco's modified Eagle's medium with 10% FBS. 1.0 ml of the cell-free collagen solution was added to tissue culture inserts (Millicell PC, Millipore, Bedford, Mass., USA) placed in six-well tissue culture plates. While the acellular collagen layer was solidifying, a second collagen solution was prepared similar to the first with the addition of human fibroblasts and the melanoma cells SKMEL28 or 451 LU. Human fibroblasts and human melanoma cells from subconfluent cultures were trypsinised, washed and resuspended in the second collagen solution at a density of 15×10^5/ml and a fibroblast to melanoma cell ratio of 1:1. 3.0 ml of the fibroblast and melanoma cell-containing collagen solution were placed over the solidified acellular collagen layer. After 5 days of incubation at 37° C., the fibroblast contraction force causes the collagen gel to contract. This structure represents the melanoma reconstruct in a dermal equivalent. […] After 10 to 14 days of submerged culture, the melanoma reconstructs were harvested and evaluated. […]
# β3 integrin = assay: Immunohistochemistry for β3 integrin in metastatic melanoma reconstructs; assay type: cell-based, human; conditions: Skmel28 and WM451Lu in dermal reconstructs, 4 μM wortmannin, 6 μM BAY 43-9006, alone or combined
# Method: (§2) The in vitro reconstruction of metastatic melanoma is based on the organotypic human skin culture technique (14). A cell-free buffered collagen solution was prepared consisting of rat tail collagen type I (BD Biosciences, Bedford, Mass., USA) at a final concentration of 1.35 mg/ml in Dulbecco's modified Eagle's medium with 10% FBS. 1.0 ml of the cell-free collagen solution was added to tissue culture inserts (Millicell PC, Millipore, Bedford, Mass., USA) placed in six-well tissue culture plates. While the acellular collagen layer was solidifying, a second collagen solution was prepared similar to the first with the addition of human fibroblasts and the melanoma cells SKMEL28 or 451 LU. Human fibroblasts and human melanoma cells from subconfluent cultures were trypsinised, washed and resuspended in the second collagen solution at a density of 15×10^5/ml and a fibroblast to melanoma cell ratio of 1:1. 3.0 ml of the fibroblast and melanoma cell-containing collagen solution were placed over the solidified acellular collagen layer. After 5 days of incubation at 37° C., the fibroblast contraction force causes the collagen gel to contract. This structure represents the melanoma reconstruct in a dermal equivalent. For submerged culture conditions, 3 ml of melanoma cell culture medium supplemented with 10% FBS were added beneath the insert and 2 ml inside the insert to allow proliferation of the seeded cells. The culture medium was changed every two days. After 10 to 14 days of submerged culture, the melanoma reconstructs were harvested and evaluated.
# For blockade of the AKT and MAPK signaling pathways, the PI3K inhibitor wortmannin (Sigma, Steinheim, Germany) and BAY 43-9006 alone or in combination were added directly to the culture medium of the melanoma reconstructs or melanoma cells in monolayer culture at 4 μM and 6 μM, respectively. These concentrations have been described previously to be effective for melanoma cells 6 (16). The culture medium was changed every two days. […]
# [2] = test system: Skmel28 metastatic melanoma cells; assay: Active caspase 3 staining (apoptosis) of melanoma reconstructs; assay type: cell-based, human; conditions: Skmel28 in dermal reconstructs; wortmannin, BAY 43-9006 or both
# Method: as §1
# [3] = test system: Skmel28 metastatic melanoma cells; assay: Invasive melanoma growth in human dermal reconstructs (hematoxylin staining); assay type: cell-based; conditions: 4 μM wortmannin; for invasive melanoma growth (number and size of melanoma cell nests): 6 μM BAY 43-9006, alone or combined
# Method: as §2
# (§3) For blockade of the AKT and MAPK signaling pathways, the PI3K inhibitor wortmannin (Sigma, Steinheim, Germany) and BAY 43-9006 alone or in combination were added directly to the culture medium of the melanoma reconstructs or melanoma cells in monolayer culture at 4 μM and 6 μM, respectively. These concentrations have been described previously to be effective for melanoma cells 6 (16). The culture medium was changed every two days. Melanoma reconstructs treated with culture medium or culture medium with the addition of DMSO served as controls. All experiments were done as duplicates and were repeated twice.
# Melanoma reconstructs were fixed with 4% formaldehyde for 8-9 h, dehydrated, and embedded in paraffin. Paraffin sections were stained with hematoxylin for routine light microscopy. […]
# Finally, we determined whether the inhibition of the PI3K/AKT signaling pathway and the MAP kinase signaling pathway is able to affect invasive melanoma growth in a physiological context. […]
# [4] = test system: Skmel28 metastatic melanoma cells; assay: Ki-67 proliferation marker staining of melanoma reconstructs (organotypic culture); assay type: cell-based, human; conditions: Skmel28 in dermal reconstructs; 4 μM wortmannin, 6 μM BAY 43-9006, alone or combined; 2-3 weeks
# Method: as §1
# avβ3 integrin = assay: Flow cytometry of cell surface avβ3 integrin, 451Lu monolayer; assay type: cell-based, human; conditions: 4 μM wortmannin, 6 μM BAY 43-9006, alone or combined, 96 hours
# Method: as §3, with “These concentrations have been described previously to be effective for melanoma cells 6 (16).” left out
# (§4) Surface proteins of 1×10^5-1×10^6 451Lu metastatic melanoma cells were stained as follows: Cells were pelleted for 5 min at 1,800 rpm (Heraeus variofuge 3.0R), blocked with 1×PBS/1% BSA, and after centrifugation incubated with antibodies against MeI-CAM (QBiogene-Alexis) or avβ3 integrin (BD Biosciences, Heidelberg) for 15 minutes at room temperature. Cells were washed with 1×PBS/1% BSA and subsequently incubated with anti mouse IgG-FITC (BD Biosciences, Heidelberg) or mouse IgG-isotype control-FITC alone (BD Biosciences, Heidelberg). After washing and pelleting the cells, the cell pellet was resuspended in 1×PBS and measured in a FACScalibur (BD Bioscienses, Heidelberg).
# (§5) Furthermore, we examined whether inhibition of these signaling pathways affected expression of the adhesion molecules MelCAM and avβ3 known to play a key role in melanoma cell invasion. […]
# [5] = test system: 451Lu metastatic melanoma cells; assay: Proliferation assay (fluorimetric, 4-methylumbelliferyl heptanoate, MUH), monolayer culture; assay type: cell-based, human; conditions: 451Lu monolayer; wortmannin 2-20 μM, BAY 43-9006 1-7 μM; MUH fluorescence
# Method: Cells were seeded as triplicates in 96 well plates at a density of 1,500 cells per well in 150 μl medium (1×10^4 cells per ml). The PI3K inhibitor wortmannin (Sigma, Steinheim, Germany) was directly added to the culture medium at concentrations ranging from 2-20 μM. BAY 43-9006 was added directly to the culture medium at concentrations ranging from 0.5-7 μM. Culture medium, cells treated with culture medium, and cells treated with culture medium with the addition of DMSO served as controls. Assay was started at timepoints indicated. Medium was discarded and each well was washed two times with PBS (without Ca2+ and Mg2+) and 100 μl of a solution containing 100 μg MUH (4-methylumbelliferyl-hepanoat)/ml PBS was added. Plates were incubated at 37° C. for one hour and measured in a Fluoroskan II (Labsystems, Helsinki), with an […]. The intensity of fluorescence indicates the number of vital cells in the wells (18,19).
# To analyze the effects of inhibition of either the MAPK or AKT signaling pathways or both together on the proliferation of melanoma cells, we treated the metastatic melanoma cell line 451Lu in monolayer with the PI3K inhibitor wortmannin, BAY 43-9006, or both together. […]
# The effect of inhibition of these signaling pathways on cell proliferation was determined by a fluorimetric assay using 4-methylumbelliferyl heptanoate (MUH) (18, 19).
# MelCAM [6] = assay: Immunohistochemistry for MelCAM in metastatic melanoma reconstructs; assay type: cell-based, human; conditions: Skmel28 and WM451Lu in dermal reconstructs; 4 μM wortmannin, 6 μM BAY 43-9006, alone or combined
# Method: as §1
# phospho-AKT (Ser473) = assay: Immunohistochemistry for phosphorylated AKT in melanoma reconstructs; assay type: cell-based, human; conditions: Skmel28 reconstructs; 4 μM wortmannin
# Method: as §1
# MelCAM [7] = assay: Flow cytometry of cell surface MelCAM, 451Lu monolayer; assay type: cell-based, human; conditions: 4 μM wortmannin, 6 μM BAY 43-9006, alone or combined, 96 hours
# Method: as §3, with “These concentrations have been described previously to be effective for melanoma cells 6 (16).” left out
# as §4, §5
SMILES,inhibition of phosphorylation of ERK (MAP-kinase pathway) [1],expression of β3 integrin (β3 integrin),active caspase 3 (ongoing apoptosis) [2],invasive melanoma growth (number and size of melanoma cell nests) [3],cell proliferation (Ki-67 staining) [4],cell surface expression of avβ3 integrin (avβ3 integrin),effect on number of proliferating (vital) cells / proliferation rate [5],expression of MelCAM (MelCAM [6]),inhibition of phosphorylation of AKT (phospho-AKT (Ser473)),cell surface expression of MelCAM (MelCAM [7]),expression of β3 integrin (β3 integrin; listed as Wortmannin),cohesion of melanoma cells (melanoma-melanoma cell adhesion) [3],morphology of melanoma cells [3]
"CNC(=O)c1cc(Oc2ccc(NC(=O)Nc3ccc(Cl)c(C(F)(F)F)c3)cc2)ccn1 [BAY 43-9006, 4{4-[3-(4-chloro-3-trifluoromethylphenyl)-ureido]-phenoxy}-pyridine-2-carboxylic acid methyl amide]",effective in the inhibition of phosphorylation,significantly reduced; also recorded: substantially reduced β3 integrin expression,active caspase 3 was found in the majority of Skmel28 metastatic melanoma cells,reduced invasive tumor growth; also recorded: reduced number and size of melanoma cell nests,significant decrease in cell proliferation,down-regulates the expression of avβ3 integrin; also recorded: down-regulated,significantly reduced; also recorded: significant decrease in cell proliferation,not affected; also recorded: did not appear to affect MelCAM expression,–,–,–,–,–
COC[C@H]1OC(=O)c2coc3c2[C@@]1(C)C1=C(C3=O)[C@@H]2CCC(=O)[C@@]2(C)C[C@H]1OC(C)=O [wortmannin],–,not altered,active caspase 3 was found in the majority of Skmel28 metastatic melanoma cells,reduced invasive tumor growth; also recorded: number and size of melanoma cell nests were reduced,little or no effect on proliferation rate,–,Little or no effect on the number of proliferating cells; also recorded: no significant effect on the number of proliferating cells,downregulated the expression of MelCAM,effective in the inhibition of phosphorylation,downregulates the expression of the adhesion molecules MelCAM; also recorded: down-regulates cell surface expression of MelCAM,not affected,decreased,multidendritic morphology; also recorded: multidendritic phenotype
